Data on 31 compounds can be found in ChEMBL document CHEMBL1141486, “Synthesis and biological evaluation of novel 1,3,5-triazine derivatives as antimicrobial agents” (Bioorg Med Chem Lett, 2008).

Usually IC50 stands for the concentration that gives 50% inhibition. Read a high IC50 as weaker potency in that assay.

One series concerns Bacillus subtilis. In words: Antibacterial activity against Bacillus subtilis […] by microdilution method. In kind it is functional, organism-based. (Dilution methods test growth across graded concentrations, often in twofold steps.)
Series [1] is described as follows: Hemolytic activity in red blood cells at 100 uM. In kind it is ADME, cell-based, Erythrocyte. The conditions noted are these: read-out: Activity.
The nature of series [2]: Effect on disruption of membrane integrity using […]-2-oleoyl-sn-glycero-3-[phospho-rac-(1-glycerol)] lipid vesicle at 90 uM by calcein dye leakage assay. In kind it is functional.
A short description of series [3]: Hemolytic activity in red blood cells. In kind it is ADME, cell-based, Erythrocyte. Conditions: read-out: HD50 (the source's name).
For the next series, the system named is Bacillus anthracis. In words: Antibacterial activity against Bacillus anthracis by microdilution method. In kind it is functional, organism-based.
The subject of the next series is Escherichia coli. The experiment in a line: Antibacterial activity against ampicillin and streptomycin-resistant Escherichia coli D31 by microdilution method. In kind it is functional, organism-based.
Another series relates to Staphylococcus aureus. The experiment in a line: Antibacterial activity against multi-drug resistant Staphylococcus aureus ATCC BAA44 by microdilution method. In kind it is functional, organism-based.
In another series the test system is Acinetobacter baumannii. In words: Antibacterial activity against Acinetobacter baumannii ATCC BAA747 by microdilution method. In kind it is functional, organism-based.
Series [4] in a line: Effect on disruption of membrane integrity using […]-2-oleoyl-sn-glycero-3-[phospho-rac-(1-glycerol)] lipid vesicle at 70 uM by calcein dye leakage assay. In kind it is functional.
The nature of series [5]: Effect on disruption of membrane integrity using […]-2-oleoyl-sn-glycero-3-[phospho-rac-(1-glycerol)] lipid vesicle at 50 uM by calcein dye leakage assay. In kind it is functional.

Activity calls are given as the source filed them. The calls are words filed in the database; no cut-off is given here.

In the series on Bacillus subtilis, `CCN(CC)CCCNc1nc(NCc2ccc3c(c2)OCO3)nc(NC23CC4CC(CC(C4)C2)C3)n1` returned an IC50 of 3.5 µM.

Take `CCCCN(CCCC)CCCNc1nc(NC23CC4CC(CC(C4)C2)C3)nc(N(CCC)CC2CC2)n1`: the IC50 in the series with Bacillus subtilis worked out at 5 µM.

In the case of `CCCCN(CCCC)CCCNc1nc(NC2CC2)nc(NC23CC4CC(CC(C4)C2)C3)n1`, in the series on Bacillus subtilis, 16.4 µM corresponded to half-maximal inhibition (IC50).

As for `CCCCN(CCCC)CCCNc1nc(NCCCN2CCCC(C)C2)nc(NC23CC4CC(CC(C4)C2)C3)n1` (centres undefined), the hemolysis at 100 µM in series [1] is below 10%.

For the compound `CN(C)c1nc(NC2CCCCCC2)nc(NC23CC4CC(CC(C4)C2)C3)n1`, the outcome in series [2] was inactive. The compound further gave an IC50 in the series with Bacillus subtilis above 40 µM.

In the series with Bacillus subtilis, `NCCNc1nc(NC2CCCCCC2)nc(NC23CC4CC(CC(C4)C2)C3)n1` showed an IC50 of 5.9 µM.

Consider `CCN(CC)CCCNc1nc(NCCc2ccc(OC)cc2)nc(NC23CC4CC(CC(C4)C2)C3)n1`, for which the hemolysis at 100 µM in [1] was below 10%.

`NCCCNc1nc(NC2CCCCCC2)nc(NC23CC4CC(CC(C4)C2)C3)n1` showed an IC50 in the series on Bacillus subtilis of 4.7 µM.

Take `CCN(CC)CCCNc1nc(NC2CCCCCC2)nc(NC23CC4CC(CC(C4)C2)C3)n1`: the hemolysis at 100 µM in series [1] was below 10%.

As for `CCCCN(CCCC)CCCNc1nc(NC2CCCCCCC2)nc(NC23CC4CC(CC(C4)C2)C3)n1`, the HC50 in series [3] is above 3.5 mM. For the same compound, the 50% inhibitory concentration (IC50) with Bacillus anthracis amounted to 86 µM; with Escherichia coli, 550 µM; with Staphylococcus aureus it was 70 µM; in the series with Acinetobacter baumannii it was 84 µM; with Bacillus subtilis, 2 µM.

In the series on Bacillus subtilis, `CCN(CC)CCCNc1nc(NCCCc2ccccc2)nc(NC23CC4CC(CC(C4)C2)C3)n1` came in with an IC50 of 3.7 µM.

In the series on Bacillus subtilis, `CN(C)CCNc1nc(NC2CCCCCC2)nc(NC23CC4CC(CC(C4)C2)C3)n1` yielded an IC50 of 7 µM.

As to `C[N+](C)(C)CCNc1nc(NC2CCCCCC2)nc(NC23CC4CC(CC(C4)C2)C3)n1`, 5.3 µM corresponded to half-maximal inhibition in the series with Bacillus subtilis (IC50).

Turning to `CC1(C)S[C@@H]2[C@H](NC(=O)[C@H](N)c3ccccc3)C(=O)N2[C@H]1C(=O)O`, the result in [4] was inactive.

Take `CCN(CC)CCCNc1nc(NCc2ccccc2)nc(NC23CC4CC(CC(C4)C2)C3)n1`: the IC50 with Bacillus subtilis turned out to be 10.6 µM.

As for `CCCCN(CCCC)CCCNc1nc(NC2CCC2)nc(NC23CC4CC(CC(C4)C2)C3)n1`, in the series on Bacillus subtilis, the IC50 turned out to be 7.9 µM.

For `CCCCN(CCCC)CCCNc1nc(NCCCN(CC)CC)nc(NC23CC4CC(CC(C4)C2)C3)n1`, the hemolysis at 100 µM in [1] was below 10%.

On to `CCCCN(CCCC)CCCNc1nc(NC2CCCCCCCCCCC2)nc(NC23CC4CC(CC(C4)C2)C3)n1`, for which half-maximal inhibition in the series on Bacillus subtilis (IC50) required 15.9 µM.

Compound `CN1CCCC1CCNc1nc(NC2CCCCCC2)nc(NC23CC4CC(CC(C4)C2)C3)n1` (centres undefined) registered an IC50 in the series with Bacillus subtilis of 5.9 µM.

In the series with Bacillus subtilis, `CCCCN(CCCC)CCCNc1nc(NC2CC3CCC2C3)nc(NC23CC4CC(CC(C4)C2)C3)n1` (centres undefined) registered an IC50 of 7.6 µM.

In the case of `CCCCN(CCCC)CCCNc1nc(NC2CCCCC2)nc(NC23CC4CC(CC(C4)C2)C3)n1`, the hemolysis at 100 µM in series [1] is below 10%.

Regarding `CN(C)CCCNc1nc(NC2CCCCCC2)nc(NC23CC4CC(CC(C4)C2)C3)n1`, in the series on Bacillus subtilis, the IC50 came out at 5.7 µM.

Regarding `CCCCN(CCCC)CCCNc1nc(NCC2CCCCC2)nc(NC23CC4CC(CC(C4)C2)C3)n1`, in the series on Bacillus subtilis, the IC50 amounted to 5.5 µM.

`CCCCN(CCCC)CCCNc1nc(NC23CC4CC(CC(C4)C2)C3)nc(NC23CC4CC(CC(C4)C2)C3)n1`: the half-maximal inhibitory concentration (IC50) with Bacillus subtilis was determined as 39 µM.

On to `CCN(CC)CCCNc1nc(NCCc2ccccc2)nc(NC23CC4CC(CC(C4)C2)C3)n1`, for which the HC50 in series [3] was above 3.5 mM. Also, the IC50 in the series on Bacillus anthracis came out at 21 µM; in the series on Escherichia coli, 200 µM; in the series with Staphylococcus aureus it was 17 µM; with Acinetobacter baumannii it was 22 µM; with Bacillus subtilis it was 2.7 µM. Besides, in series [5], the Activity was 100%.

As for `CCCCN(CCCC)CCCNc1nc(NC23CC4CC(CC(C4)C2)C3)nc(N(CCCC)CCCC)n1`, half-maximal inhibition in the series on Bacillus subtilis (IC50) required 4.4 µM.

For `CCN(CC)CCNc1nc(NC2CCCCCC2)nc(NC23CC4CC(CC(C4)C2)C3)n1`, in the series with Bacillus subtilis, the IC50 was 5.6 µM.

As to `CCCCN(CCCC)CCCNc1nc(NC2CCCC2)nc(NC23CC4CC(CC(C4)C2)C3)n1`, 4.6 µM corresponded to half-maximal inhibition in the series on Bacillus subtilis (IC50).

Take `CCCCN(CCCC)CCCNc1nc(NC2CCCCCC2)nc(NC23CC4CC(CC(C4)C2)C3)n1`: the HC50 in series [3] was above 3.5 mM. In addition, the half-maximal inhibitory concentration (IC50) in the series with Bacillus anthracis was 41 µM; in the series with Escherichia coli, 620 µM; with Staphylococcus aureus it was 68 µM; with Acinetobacter baumannii, 53 µM; with Bacillus subtilis it was 2.5 µM. The hemolysis at 100 µM in series [1] is below 10%.

Regarding `CCCCN(CCCC)CCCNc1nc(NCCc2ccc(OC)cc2)nc(NC23CC4CC(CC(C4)C2)C3)n1`, the hemolysis at 100 µM in [1] was below 10%.

Regarding `CCCCN(CCCC)CCCNc1nc(NCCCN(CCCC)CCCC)nc(NC23CC4CC(CC(C4)C2)C3)n1`, the hemolysis at 100 µM in series [1] is below 10%.
